A short description of data set [1]: Clinical study of CCOS analgesia in volunteers with painful conditions (short-form McGill Pain Questionnaire). Format: in vivo, human. To be noted: patient. Here is the method: This modification is a hybrid form utilizing both a Visual Analogue Scale rating pain from 0 (no pain) to 5 (excruciating) as well as a pain questionnaire rating the pain from 0 (no pain) to 3 (severe) along with the following descriptions:
To test the effectiveness of chitin chitosan oligosaccharide (CCOS) in providing satisfactory analgesia in both nociceptive and neuropathic pain, a clinical study was conducted with volunteers suffering from a variety of rather common painful conditions (see Table 11). Pain can be an extremely subjective phenomena; there is no laboratory or radiological test to measure its severity or indeed even its presence as described elsewhere p. 8). […] “There is a whole literature of validated, subjective tools that are absolutely reliable” (Melvin C. Gitlin, MD Professor of Anesthesiology, Tulane University School of Medicine and Director of the Pain Management Center at the Tulane University Hospital Clinic) The conditions of all of the volunteers in this study have been documented by physicians, in some cases more than one, and their pain substantiated. […] Our methods, utilizing human subjects is equally valid and acceptable (36). (see Modified McGill Pain form used as the basis to evaluate pain).

The conditions of data set [2]: in vivo, po; cited from earlier work.

The source of these data is patent US6492350B2, “Chitin oligosaccharides and/or chitosan oligosaccharides for preventing or treating common cold or treating pain” (JDC (Hawaii) Inc., priority 2000, dated 2002).

For the compound `CC(=O)Oc1ccccc1C(=O)O` [ASA], in data set [1] (acute pharangitis, nociceptive (inflammatory), CCOS 150 mg STAT then 100 mg PRN), the “Degree of Pain Reduction” value is listed as “no significant improvement”.
Turning to `CC(=O)Nc1ccc(O)cc1` [Tylenol, Acetaminophen], the “Degree of Pain Reduction” value in data set [1] (low back pain secondary to strain, nociceptive, CCOS 400 mg STAT then 300 mg QID) is reported as “little or no effect”.
Consider Chitin, for which the absorbed orally in data set [2] is 20-40%.
